Measurements: ChEMBL document CHEMBL1152876, “Synthesis and evaluation of novel phosphoramidate prodrugs of 2'-methyl cytidine as inhibitors of hepatitis C virus NS5B polymerase” (Bioorg Med Chem Lett, 2009)

Experiments:
Hepatitis C virus = assay: Antiviral activity against HCV infected in human hepatoma cells by replicon assay; type: functional, Hepacivirus hominis
Rattus norvegicus = assay: Metabolic stability in rat liver assessed as nucleoside triphosphate formation at 30 umol/kg, po after 6 hrs; details: in vivo
Hepatocyte [1] = assay: Metabolic stability in human hepatocyte assessed as nucleoside triphosphate at 10 uM level after 2 hrs; details: hepatocytes
Hepatocyte [2] = assay: Metabolic stability in rat hepatocyte assessed as nucleoside triphosphate at 10 uM level after 2 hrs; details: hepatocytes

Stability (Hepatocyte [1]) [µM] | Stability (Hepatocyte [2]) [µM] | Structure (SMILES) | Activity (Hepatitis C virus) [nM] | Stability (Rattus norvegicus) [nmol/g]
– | – | CC(C)(C)C(=O)OCCNP(=O)(OC[C@H]1O[C@@H](n2ccc(N)nc2=O)[C@](C)(O)[C@@H]1O)Oc1ccccc1 (some centres not stated) | 226 | –
– | – | CC(C)CC(COC(=O)C(C)(C)C)NP(=O)(OC[C@H]1O[C@@H](n2ccc(N)nc2=O)[C@](C)(O)[C@@H]1O)Oc1ccccc1 (some centres not stated) | 1840 | –
– | – | CC(C)C(=O)O[C@H]1CCN(P(=O)(OC[C@H]2O[C@@H](n3ccc(N)nc3=O)[C@](C)(O)[C@@H]2O)Oc2ccccc2)C1 (some centres not stated) | <20000 | –
– | – | CC(CNP(=O)(OC[C@H]1O[C@@H](n2ccc(N)nc2=O)[C@](C)(O)[C@@H]1O)Oc1ccccc1)OC(=O)C(C)C (some centres not stated) | 585 | –
– | – | CC(C)C(=O)OCC(Cc1ccccc1)NP(=O)(OC[C@H]1O[C@@H](n2ccc(N)nc2=O)[C@](C)(O)[C@@H]1O)Oc1ccccc1 (some centres not stated) | 921 | –
– | – | C[C@@]1(O)[C@H](O)[C@@H](COP(=O)(NCCOC(=O)C2CCCCCC2)Oc2ccccc2)O[C@H]1n1ccc(N)nc1=O (some centres not stated) | 1160 | –
– | – | CCC(CC)C(=O)OCCNP(=O)(OC[C@H]1O[C@@H](n2ccc(N)nc2=O)[C@](C)(O)[C@@H]1O)Oc1ccccc1 (stereo in doubt; 9) [DIASTEREOMERIC MIX] | 2830 | –
– | – | C[C@@]1(O)[C@H](O)[C@@H](COP(=O)(NCCOC(=O)c2ccccc2)Oc2ccccc2)O[C@H]1n1ccc(N)nc1=O (some centres not stated) | 1960 | 0.3
– | – | CCCC(CCC)C(=O)OCCNP(=O)(OC[C@H]1O[C@@H](n2ccc(N)nc2=O)[C@](C)(O)[C@@H]1O)Oc1ccccc1 (stereo in doubt; 10b) [2-((((2R,3R,4R,5R)-5-(4-AMINO-2-OXOPYRIMIDIN-1(2H)-YL)-3,4-DIHYDROXY-4-METHYLTETRAHYDROFURAN-2-YL)METHOXY)(PHENOXY)PHOSPHORYLAMINO)ETHYL 2-PROPYLPENTANOATE (DIASTEREOMERIC  MIX)] | 240 | 0.2
17 | < 14 | CC(C)[C@H](N)C(=O)O[C@@H]1[C@@H](CO)O[C@@H](n2ccc(N)nc2=O)[C@]1(C)O [VALOPICITABINE] | 7600 | 0.2
– | – | CCC(CC)C(=O)OCCNP(=O)(OC[C@H]1O[C@@H](n2ccc(N)nc2=O)[C@](C)(O)[C@@H]1O)Oc1ccccc1 (stereo in doubt; 9b) [DIASTEREOMERIC MIX] | 625 | –
– | – | CCCC(CCC)C(=O)OCCNP(=O)(OC[C@H]1O[C@@H](n2ccc(N)nc2=O)[C@](C)(O)[C@@H]1O)Oc1ccccc1 (stereo in doubt; 10a) [2-((((2R,3R,4R,5R)-5-(4-AMINO-2-OXOPYRIMIDIN-1(2H)-YL)-3,4-DIHYDROXY-4-METHYLTETRAHYDROFURAN-2-YL)METHOXY)(PHENOXY)PHOSPHORYLAMINO)ETHYL 2-PROPYLPENTANOATE (DIASTEREOMERIC  MIX)] | 450 | –
